From patent US11123323B2, “Monoterpenes for treating respiratory disorders, in particular bronchopulmonary disorders” (Maria Clemetine Martin Klosterfrau Vertriebsqesellschaft MBH, priority 2008, dated 2021)

Assays:
[1] = test system: FCS-stimulated production of superoxides (O2^−) in normal human monocytes; assay: FCS-stimulated superoxide production of normal human monocytes in vitro (INT-formazan); assay type: cell-based; conditions: for INT-Formazan / O2^−: FCS 10%; for INT-Formazan / Comparison to control (%): Table 4 series
Experimental: As already described, monocytes were isolated from 50 ml of venous blood which was repeatedly donated voluntarily for the experiments by healthy non-smoking subjects (n=4). […] To this end, the active compounds were incubated together with freshly isolated monocytes (10^5/ml) and the FCS stimulus (10%, from Sigma) for 20 hours in a cell culture medium (RPMI-1640, from Sigma). […] The determination of the cytosolic superoxide production is based on the reduction of the dye p-iodonitrotetrazolium violet (INTV), which reacts specifically with superoxide ions, to iodonitrotetrazolium formazan (formazan). INTV is taken up by the cells into the cytosol. Intracellularly, the nitrogen cycle of the INTV is reduced by free superoxide radicals, giving rise to a water-soluble intermediate and the water-insoluble formazan, which have their absorption maxima at 505 and 490 nm, respectively. […] At the end of an experiment, the cell lysate is (after treatment with hydrochloric acid) measured at 492 nm in a photometer. Here, the absorption of light is proportional to the amount of intracellularly accumulated INT-formazan which can then be determined using a formazan calibration curve. The INT-formazan accumulation for its part is determined as a measure for the intracellular production of superoxide.

[2] = test system: NO production in stimulated human monocytes; assay: NO production in stimulated human monocytes in vitro (FIG. 3); assay type: cell-based
[3] = test system: superoxide dismutases (SOD); assay: Superoxide dismutase activity
[4] = test system: superoxide production (O2^− production) of normal human monocytes; assay: PMA-stimulated superoxide production (INT-formazan) of normal human monocytes in vitro; assay type: cell-based; conditions: for INT-Formazan: PMA, 20 hours; for O2^− production: FIG. 3
[5] = test system: production of TNF-α in ex-vivo stimulated peripheral human monocytes; assay: TNF-α production in ex-vivo stimulated peripheral monocytes of former smokers under additional therapy; assay type: cell-based; conditions: long-term additional therapy with 1,8-cineol plus ICS-based therapy
Experimental: (§1) From these patients, monocytes were obtained during ongoing therapy with ICS and incubated in vitro with a topical glucocorticoid in a dose-dependent manner.

[6] = test system: IL-1beta production in LPS-stimulated human monocytes; assay: LPS-stimulated production of IL-1beta in human monocytes in vitro (ELISA); assay type: cell-based
Description: 1,8-Cineol intensifies in particular the action of subtherapeutic concentrations of beclometasone which are relevant for the peripheral respiratory tract.

[7] = test system: patients with persistent bronchial asthma (GINA III); assay: Clinical add-on therapy with oral 1,8-cineol, persistent bronchial asthma GINA III, 12 patients; assay type: in vivo, human
Description: Even after a one-week therapy at the dose mentioned above, in 9 of the 12 subjects a slight to moderate improvement of lung function was achieved. After continuing therapy for a further twelve weeks, the persistent bronchial asthma had stabilized to such an extent that in 9 of the 12 patients the inhalative glucocorticoid required could be reduced by up to 30%.

[8] = test system: production of IL-8 in ex-vivo stimulated peripheral human monocytes; assay: IL-8 production in ex-vivo stimulated peripheral monocytes of former smokers under additional therapy; assay type: cell-based; conditions: long-term additional therapy with 1,8-cineol plus ICS-based therapy
Experimental: as §1

[9] = test system: smokers with COPD (GOLD II to III); assay: Placebo-controlled double-blind study of additional therapy with 1,8-cineol in smokers with COPD; assay type: in vivo, human
Experimental: In a placebo-controlled double-blind study, the effect of an additional therapy with 1,8-cineol in the form of capsules which dissolve in the small intestine (Soledum® capsules, 3×200 mg/day, oral) on exacerbation rate and lung function was examined in 3 winter months of two successive years using 242 smokers with COPD (GOLD II to III).

[10] = test system: patients with persistent bronchial asthma (GINA II); assay: Clinical add-on therapy with oral 1,8-cineol, persistent bronchial asthma GINA II, 10 patients; assay type: in vivo, human
Experimental: 10 patients 56 to 72 years of age with persistent bronchial asthma (GINA II) treated with a combination therapy of inhalative glucocorticoid (beclometasone, 2×200 μg/day by inhalation) and inhalative long-acting beta-2-sympathomimetics (LABA, salmeterol) and also oral theophyllin were given 1,8-cineol (Soledum® capsules) 4×200 mg/day orally for one week. Even after a one-week therapy at the dose mentioned above, in 8 of the 10 subjects a slight to moderate improvement of lung function was achieved. After continuing therapy for a further twelve weeks, the persistent bronchial asthma had stabilized to such an extent that in 7 of the 10 patients the inhalative glucocorticoid required could be reduced by up to 60% and in 2 of the 10 patients the inhalative glucocorticoids could be discontinued altogether at times. […] In 5 of the patients treated, the betamimetics required, too, could be reduced by up to 40%.

[11] = 1,8-cineol 6 × 10^−6 mol/l (0.9 μg/ml), Table 6 series
[12] = therapeutic range of 1,8-cineol
[13] = 4×200 mg/day orally, after one week, add-on to beclometasone, salmeterol, theophyllin

In the case of `CC12CCC(CC1)C(C)(C)O2` [1,8-cineol, 1,3,3-trimethyl-2-oxabicyclo-[2.2.2]-octane], the INT-Formazan ([1]; 0.000015 μg/ml (10^−10 mol/l)) is reported as 21360 ± 1766 nmol/10^5, the “Comparison to control (%)” value ([1]; 0.000015 μg/ml (10^−10 mol/l)) is reported as −0.7 ± 8% and the INT-Formazan ([1]; 0.00015 μg/ml (10^−9 mol/l)) is reported as 21329 ± 1920 nmol/10^5. For the same compound, the “Comparison to control (%)” value ([1]; 0.00015 μg/ml (10^−9 mol/l)) was −0.8 ± 9%, the INT-Formazan ([1]; 0.0015 μg/ml (10^−8 mol/l)) was 21946 ± 1858 nmol/10^5 and the “Comparison to control (%)” value ([1]; 0.0015 μg/ml (10^−8 mol/l)) was 2 ± 8%. The INT-Formazan ([1]; 0.015 μg/ml (10^−7 mol/l)) was 21899 ± 1879 nmol/10^5, the “Comparison to control (%)” value ([1]; 0.015 μg/ml (10^−7 mol/l)) was 1.8 ± 8% and the INT-Formazan ([1]; 0.15 μg/ml (10^−6 mol/l)) was 22286 ± 2036 nmol/10^5. For the same compound, the “Comparison to control (%)” value ([1]; 0.15 μg/ml (10^−6 mol/l)) was 3.6 ± 9%, the INT-Formazan ([1]; 0.3 μg/ml (2 × 10^−6 mol/l)) was 21499 ± 1959 nmol/10^5 and the “Comparison to control (%)” value ([1]; 0.3 μg/ml (2 × 10^−6 mol/l)) was 0.04 ± 9%. The INT-Formazan ([1]; 0.6 μg/ml (4 × 10^−6 mol/l)) was 17240 ± 1637 nmol/10^5, the “Comparison to control (%)” value ([1]; 0.6 μg/ml (4 × 10^−6 mol/l)) was −19.8 ± 9% and the INT-Formazan ([1]; 0.9 μg/ml (6 × 10^−6 mol/l)) was 12341 ± 1061 nmol/10^5. For the same compound, the “Comparison to control (%)” value ([1]; 0.9 μg/ml (6 × 10^−6 mol/l)) was −42.6±8%, the “Comparison to control (%)” value ([1]; 0.9 μg/ml (6 × 10^−6 mol/l), listed as 1,8-Cineol) was −42.6 ± 8% and the INT-Formazan ([1]; 1.2 μg/ml (8 × 10^−6 mol/l)) was 10086 ± 701 nmol/10^5. The “Comparison to control (%)” value ([1]; 1.2 μg/ml (8 × 10^−6 mol/l)) was −53.1 ± 7%, the INT-Formazan ([1]; 1.5 μg/ml (10^−5 mol/l)) was 10202 ± 915 nmol/10^5 and the “Comparison to control (%)” value ([1]; 1.5 μg/ml (10^−5 mol/l)) was −52.6 ± 9%. For the same compound, the “O2^−” value ([1]; 1,8-cineol 4 × 10^−6 mol/l (0.6 μg/ml), Table 5 series) was 16323 ± 1069 nmol/mL, the “O2^−” value [1, 11] was 9347 ± 494 nmol/mL and the Percent of control [1, 11] was −50.2±5%. The “lowest antioxidatively active concentration” value ([1]; FCS-stimulated O2^− production) was 6e-06 mol/L, the “inhibition of the production of O2^− radicals” value ([1]; therapeutically relevant concentrations of 1,8-cineol, summary) was “about 50%” and the “production of NO” value ([2]; subtherapeutic concentrations (0.15 μg/ml=10^−6 mol/l)) was “inhibit the production of NO”. For the same compound, the “production of NO” value [2, 12] was “stimulating effects on the production of NO”, the superoxide dismutase activity [3] was “partially inhibited” and the “Comparison with control (%)” value ([4]; 0.0015 μg/ml (10^−8 mol/l)) was “+27.6 ± 4%”. The INT-Formazan ([4]; 0.0015 μg/ml (10^−8 mol/l)) was 5.364 ± 229 nmol/10^5, the “Comparison with control (%)” value ([4]; 0.015 μg/ml (10^−7 mol/l)) was “+24.5 ± 6%” and the INT-Formazan ([4]; 0.015 μg/ml (10^−7 mol/l)) was 5235 ± 341 nmol/10^5. The “Comparison with control (%)” value ([4]; 0.15 μg/ml (10^−6 mol/l)) was “+26.7 ± 7%”, the INT-Formazan ([4]; 0.15 μg/ml (10^−6 mol/l)) was 5327 ± 360 nmol/10^5 and the “Comparison with control (%)” value ([4]; 0.3 μg/ml (2 × 10^−6 mol/l)) was “+31.8 ± 6%”. For the same compound, the INT-Formazan ([4]; 0.3 μg/ml (2 × 10^−6 mol/l)) was 5540 ± 359 nmol/10^5, the “Comparison with control (%)” value ([4]; 0.6 μg/ml (4 × 10^−6 mol/l)) was “+43.8 ± 9%” and the INT-Formazan ([4]; 0.6 μg/ml (4 × 10^−6 mol/l)) was 6045 ± 534 nmol/10^5. The “Comparison with control (%)” value ([4]; 0.9 μg/ml (6 × 10^−6 mol/l)) was “+45.3 ± 7%”, the INT-Formazan ([4]; 0.9 μg/ml (6 × 10^−6 mol/l)) was 6107 ± 437 nmol/10^5 and the “Comparison with control (%)” value ([4]; 1.2 μg/ml (8 × 10^−6 mol/l)) was −2.5 ± 6%. The INT-Formazan ([4]; 1.2 μg/ml (8 × 10^−6 mol/l)) was 4099 ± 234 nmol/10^5, the “Comparison with control (%)” value ([4]; 1.5 μg/ml (10^−5 mol/l)) was −42 ± 16% and the INT-Formazan ([4]; 1.5 μg/ml (10^−5 mol/l)) was 2438 ± 389 nmol/10^5. For the same compound, the “Comparison with control (%)” value ([4]; 3 μg/ml (2 × 10^−5 mol/l)) was −84.9 ± 22%, the INT-Formazan ([4]; 3 μg/ml (2 × 10^−5 mol/l)) was 634 ± 139 nmol/10^5 and the “O2^− production” value ([4]; low concentrations of 1,8-cineol) was “slightly induce O2^− production”. For the same compound, the “O2^− production” value [4, 12] was “inhibited strongly”, the “production of TNF-α compared to normal monocytes of nonsmokers” value [5] was “inhibition of the production of TNF-α” and the “production of IL-1beta, change” value ([6]; 1,8-cineol on its own, 10^−6 mol/l, FIG. 1) was −32%. The “Effect vs. control Inhibition (%)” value ([6]; cineol 10^−6 mol/l) was 32.4±17%, the “Effect vs. cineol 10^−6 mol/l Inhibition (%)” value ([6]; cineol 10^−6 mol/l (the reference itself)) was 0 ± 17% and the IL-1beta ([6]; cineol 10^−6 mol/l, LPS, 20 hours) was 3548 ± 600 Pg/5 × 10^4 cells. The “Effect vs. control Inhibition (%)” value ([6]; cineol 10^−6 mol/l, listed as cineol) was 32.4 ± 17%, the “LPS-stimulated production of IL1-beta compared to the LPS control” value ([6]; therapeutically relevant concentrations of 1,8-cineol, FIG. 2, p<0.01) was “inhibited by therapeutically relevant concentrations of 1,8-cineol in a dose-dependent manner and significantly” and the tolerability ([7]; 4×200 mg/day orally) was “tolerated well, without any side-effects”. For the same compound, the “subjects with a slight to moderate improvement of lung function” value [7, 13] was 9 of the 12, the “patients in whom the inhalative glucocorticoid required could be reduced” value ([7]; after a further twelve weeks) was 9 of the 12 and the “reduction of the betamimetics required” value ([7]; after a further twelve weeks) was “up to 25%”. For the same compound, the “reduction of the inhalative glucocorticoid required” value ([7]; after a further twelve weeks) was “up to 30%”, the “patients in whom the betamimetics required could be reduced” value ([7]; of 12 patients treated) was 4 and the “production of IL-8 compared to normal monocytes of nonsmokers” value [8] was “increased production of IL-8”. For the same compound, the “St. George's Respiratory Questionnaire (SGRQ), change in the verum group” value ([9]; 3×200 mg/day, oral) was −10.4 units, the “lung function (FEV1), change in the verum group” value ([9]; 3×200 mg/day, oral) was “+5.1%” and the “reduction in the exacerbation rate compared to the placebo group” value ([9]; 3×200 mg/day, oral, 3 winter months of two successive years, 242 smokers) was −38.5%. For the same compound, the “further reduction of the frequency of exacerbations beyond known combined therapies” value ([9]; additional therapy with capsules which dissolve in the small intestine) was 25%, the tolerability ([10]; 4×200 mg/day orally) was “tolerated well, without any side-effects” and the “patients in whom the inhalative glucocorticoid required could be reduced” value ([10]; 4×200 mg/day orally, after a further twelve weeks) was 7 of the 10. For the same compound, the “subjects with a slight to moderate improvement of lung function” value [10, 13] was 8 of the 10, the “patients in whom the inhalative glucocorticoids could be discontinued altogether at times” value ([10]; after a further twelve weeks) was 2 of the 10 and the “reduction of the betamimetics required” value ([10]; after a further twelve weeks) was “up to 40%”. For the same compound, the “reduction of the inhalative glucocorticoid (ICS dose) required” value ([10]; long-term therapy with oral 1,8-cineol, one plus twelve weeks) was “up to 60%” and the “patients in whom the betamimetics required could be reduced” value ([10]; of 10 patients treated) was 5.
